This note sets out measurements from patent US20260250270A1, “Compound Used as Kinase Inhibitor and Use Thereof” (TYK MEDICINES, INC., priority 2022, published 2026).

Test [1] has as its system Ba/F3 EGFR D770_N771 ins SVD. Briefly: In vivo pharmacodynamic study, Ba/F3-EGFR-D770_N771 ins SVD subcutaneous xenograft model. Set-up: species or system nude mice. The note with it: 30 mg/kg, P.O, QD * 14 days. Here is the method: The experimental design and results were shown in Table 9, wherein P.O referred to administered orally; QD: once a day; TGI (Tumor volume inhibition rate)=(1-Tumor weight of the treatment group/Tumor weight of the control group)*100%. The cell line Ba/F3 EGFR D770_N771 ins SVD was cultured in 37° C., 5% CO2 with RPMI1640+10% fetal bovine serum+1% double antibody, and passaged 2-3 times a week. When the cell saturation was 80-90% and the number of cells met the requirement, the cells were collected. 0.2 mL (1*10^6) cells were subcutaneously inoculated into the right back of 6-8 weeks old female nude mice weighing 18-22 g. When the average tumor volume reached approximately 150-200 mm^3, grouping and drug administration started. Before the start of drug administration, all animals were weighed and the tumor volume was measured with vernier calipers. Mice were randomly grouped according to tumor volume to ensure that tumor volumes were similar between groups. Three mice in each group were administered orally once daily, and the inoculation site was observed after administration. Tumor volume and mouse body weight were measured twice a week.

The test system of another test is PC9. As to the kind of experiment: Cell proliferation inhibition (CellTiter-Glo) on cell line PC9. It is filed as cell-based. As to conditions: Homo sapiens, PC-9. As to the method: (§1) The cell lines NCI-H1975 and PC9 selected for the experiments were provided by Sino-American Guanke Biotechnology (Beijing) Co. and were validated prior to use in this study.
(§2) A 10× stock of the compound to be tested was prepared for use, with 9 concentrations in 4-fold gradient dilution, diluted from 10 μM.
(§3) The logarithmic growth phase cell suspension was inoculated into a 96-well culture plate with 90 μL volume per well (2000 cells/well). 10 μL of 10× Compound to be tested was added to the plate according to the plate spreading diagram, and then mixed well. The plate was incubated in a 5% CO2 incubator at 37° C. The proliferation inhibitory activity of the compound was determined by the CellTiter-Glo method. Cell proliferation inhibition rate (Inhibition Rate) data were plotted using GraphPad Prism 8.0 software for cell viability curves and IC50 values were calculated.
On the technique in general: ATP-based viability assays read luminescence as a measure of living cells.

The next test relates to NCI-H1975. Briefly: Cell proliferation inhibition (CellTiter-Glo) on cell line NCI-H1975. The note with it: Homo sapiens. The format is cell-based. As to the method: as §1, §2, §3
Test [2] concerns the target Ba/F3-FL-EGFR-D770-N771 ins SVD (Homo sapiens, UniProt P00533, DUP768-770, cells depend on it). As to the kind of experiment: Cell proliferation inhibition (CellTiter-Glo), EGFR exon 20 insertion engineered cells. It is filed as cell-based. As to conditions: 72 h, read-out: IC50, Ba/F3-FL-EGFR D770-N771ins SVD. As to the method:
(§4) The selected engineering cells Ba/F3-FL-EGFR-V769-D770 ins ASV, Ba/F3-FL-EGFR-D770-N771 ins SVD, Ba/F3-FL-EGFR-H773-V774 ins NPH, Ba/F3-FL-EGFR-A763-Y764 ins FQEA, Ba/F3-HER2-A775-G776 ins YVMA were provided by Hefei PreceDo Biomedical Technology Co., LTD and were validated prior to use in this study.
(§5) A 20× stock of the compound to be tested was prepared for use, with 9 concentrations in 3-fold gradient dilution, diluted from 1 μM.
(§6) The logarithmic growth phase cell suspension was inoculated into 96-well white cell culture plates with 95 μL volume per well (2000 cells/well). 5 μL of 20× Compound to be tested was added to the plate containing 95 μL of cell suspension according to the plate spreading diagram, and then mixed well. The plate was incubated in a 5% CO2 incubator at 37° C. for 72 h. The proliferation inhibition activity of the compounds was determined by the CellTiter-Glo method, and the fluorescence value per well, RLU, was obtained from the SpectraMax Paradigm reading. Inhibition Rate data were processed using the following formula: Inhibition Rate (Inh %)=100−(RLU compound−RLU blank)/(RLU control−RLU blank)*100%. The cell viability corresponding to different concentrations of compounds was calculated in EXCEL, and then GraphPad Prism software was used to plot the cell viability curve and calculate the IC50 value.

Test [3] addresses Ba/F3-FL-EGFR-A763-Y764 ins FQEA (Homo sapiens, UniProt P00533, INS763FQEA, cells depend on it). The test is described as above. It is filed as cell-based. As to conditions: 72 h, read-out: IC50, Ba/F3-FL-EGFR A763-Y764ins FQEA. As to the method: as §4, §5, §6
The target in test [4] is Ba/F3-FL-EGFR-H773-V774 ins NPH (Homo sapiens, UniProt P00533, DUP771-773, cells depend on it). The test is described as above. The format is cell-based. As to conditions: 72 h, read-out: IC50, Ba/F3-FL-EGFR H773-V774ins NPH. As to the method:
as §4, §5, §6

Test [5] deals with Ba/F3-FL-EGFR-V769-D770 ins ASV (Homo sapiens, UniProt P00533, DUP767-769, cells depend on it). Described as above. It is filed as cell-based. The note with it: 72 h, read-out: IC50, Ba/F3-FL-EGFR V769-D770ins ASV. As to the method: as §4, §5, §6
Chain of Ba/F3-FL-EGFR-V769-D770 ins ASV (P00533 with tags, fused parts or gaps DUP767-769): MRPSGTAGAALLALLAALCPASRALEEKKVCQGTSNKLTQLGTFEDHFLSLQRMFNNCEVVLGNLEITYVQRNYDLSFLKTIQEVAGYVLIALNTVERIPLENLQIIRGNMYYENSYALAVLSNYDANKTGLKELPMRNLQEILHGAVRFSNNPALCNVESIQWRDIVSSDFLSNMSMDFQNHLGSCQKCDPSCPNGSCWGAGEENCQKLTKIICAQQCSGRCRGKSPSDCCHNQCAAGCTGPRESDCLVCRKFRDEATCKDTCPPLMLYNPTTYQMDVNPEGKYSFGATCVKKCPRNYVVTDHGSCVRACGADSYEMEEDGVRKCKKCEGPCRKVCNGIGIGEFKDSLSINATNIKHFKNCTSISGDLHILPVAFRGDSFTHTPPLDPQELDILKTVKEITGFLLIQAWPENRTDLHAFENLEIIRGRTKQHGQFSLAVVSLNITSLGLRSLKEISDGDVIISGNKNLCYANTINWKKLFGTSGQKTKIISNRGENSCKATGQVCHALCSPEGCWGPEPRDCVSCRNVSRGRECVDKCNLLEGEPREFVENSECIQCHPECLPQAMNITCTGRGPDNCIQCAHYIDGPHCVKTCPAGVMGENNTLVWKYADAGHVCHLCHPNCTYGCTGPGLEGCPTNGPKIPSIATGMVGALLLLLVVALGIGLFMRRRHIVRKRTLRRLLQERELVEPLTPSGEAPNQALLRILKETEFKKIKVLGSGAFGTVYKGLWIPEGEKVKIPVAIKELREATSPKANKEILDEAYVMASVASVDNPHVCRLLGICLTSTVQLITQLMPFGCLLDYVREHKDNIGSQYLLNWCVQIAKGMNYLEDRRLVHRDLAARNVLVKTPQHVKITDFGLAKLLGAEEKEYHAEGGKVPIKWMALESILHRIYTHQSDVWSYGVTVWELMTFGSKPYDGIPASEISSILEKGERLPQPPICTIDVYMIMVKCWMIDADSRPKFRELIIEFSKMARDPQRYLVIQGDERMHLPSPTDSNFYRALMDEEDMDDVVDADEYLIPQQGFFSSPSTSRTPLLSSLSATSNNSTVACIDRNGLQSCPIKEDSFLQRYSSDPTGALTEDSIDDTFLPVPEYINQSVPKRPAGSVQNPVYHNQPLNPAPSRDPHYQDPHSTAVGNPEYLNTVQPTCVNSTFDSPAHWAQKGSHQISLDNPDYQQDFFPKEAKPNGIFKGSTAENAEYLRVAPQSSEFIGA
Test [6] deals with Lung cancer LU0387PDX model. As to the kind of experiment: Pharmacodynamic study on lung cancer LU0387PDX model. The format is in vivo, mice. The note with it: LU0387 model; for TGI (%): P.O, QD * 13 days. The text has this:
Lung cancer LU0387PDX model is a commonly used xenograft tumor model from Crown Bioscience, the experimental situation of this model is described as follows: after euthanasia of tumor-bearing mice, the tumor blocks were dissected out in aseptic condition, the blocks were cleaned to remove blood stains and connective tissues and necrotic parts, and the tumors were cut into small pieces of 2*2*2 mm^3, and inoculated with an adapter needle in sterilized experimental mice subcutaneously on the right dorsal side. Tumor growth was regularly observed, and when the tumors grew to an average volume of 100~200 mm^3, mice were randomly grouped according to tumor size and body weight for drug administration. Before the start of drug administration, all animals were weighed and the tumor volume was measured with vernier calipers. Mice were randomly grouped according to tumor volume to ensure that tumor volumes were similar between groups. Three mice in each group were administered orally once daily, and the inoculation site was observed after administration. Tumor volume and mouse body weight were measured twice a week. The experimental design and results were shown in Table 9, wherein P.O referred to administered orally; QD: once a day; TGI (Tumor volume inhibition rate)=(1-Tumor weight of the treatment group/Tumor weight of the control group)*100%.

Test [7] concerns the target Ba/F3-HER2-A775-G776 ins YVMA (Homo sapiens, UniProt P04626, DUP772-775, cells depend on it). As to the kind of experiment: Cell proliferation inhibition (CellTiter-Glo), HER2 exon 20 insertion engineered cells. As to conditions: for GI50: 72 h, CellTiter-Glo, read-out: IC50, Ba/F3-HER2-A775-G776ins YVMA. It is filed as cell-based. Here is the method:
as §4, §5, §6

Some results are limits rather than exact numbers.

Chain of Ba/F3-HER2-A775-G776 ins YVMA (P04626 with tags, fused parts or gaps DUP772-775): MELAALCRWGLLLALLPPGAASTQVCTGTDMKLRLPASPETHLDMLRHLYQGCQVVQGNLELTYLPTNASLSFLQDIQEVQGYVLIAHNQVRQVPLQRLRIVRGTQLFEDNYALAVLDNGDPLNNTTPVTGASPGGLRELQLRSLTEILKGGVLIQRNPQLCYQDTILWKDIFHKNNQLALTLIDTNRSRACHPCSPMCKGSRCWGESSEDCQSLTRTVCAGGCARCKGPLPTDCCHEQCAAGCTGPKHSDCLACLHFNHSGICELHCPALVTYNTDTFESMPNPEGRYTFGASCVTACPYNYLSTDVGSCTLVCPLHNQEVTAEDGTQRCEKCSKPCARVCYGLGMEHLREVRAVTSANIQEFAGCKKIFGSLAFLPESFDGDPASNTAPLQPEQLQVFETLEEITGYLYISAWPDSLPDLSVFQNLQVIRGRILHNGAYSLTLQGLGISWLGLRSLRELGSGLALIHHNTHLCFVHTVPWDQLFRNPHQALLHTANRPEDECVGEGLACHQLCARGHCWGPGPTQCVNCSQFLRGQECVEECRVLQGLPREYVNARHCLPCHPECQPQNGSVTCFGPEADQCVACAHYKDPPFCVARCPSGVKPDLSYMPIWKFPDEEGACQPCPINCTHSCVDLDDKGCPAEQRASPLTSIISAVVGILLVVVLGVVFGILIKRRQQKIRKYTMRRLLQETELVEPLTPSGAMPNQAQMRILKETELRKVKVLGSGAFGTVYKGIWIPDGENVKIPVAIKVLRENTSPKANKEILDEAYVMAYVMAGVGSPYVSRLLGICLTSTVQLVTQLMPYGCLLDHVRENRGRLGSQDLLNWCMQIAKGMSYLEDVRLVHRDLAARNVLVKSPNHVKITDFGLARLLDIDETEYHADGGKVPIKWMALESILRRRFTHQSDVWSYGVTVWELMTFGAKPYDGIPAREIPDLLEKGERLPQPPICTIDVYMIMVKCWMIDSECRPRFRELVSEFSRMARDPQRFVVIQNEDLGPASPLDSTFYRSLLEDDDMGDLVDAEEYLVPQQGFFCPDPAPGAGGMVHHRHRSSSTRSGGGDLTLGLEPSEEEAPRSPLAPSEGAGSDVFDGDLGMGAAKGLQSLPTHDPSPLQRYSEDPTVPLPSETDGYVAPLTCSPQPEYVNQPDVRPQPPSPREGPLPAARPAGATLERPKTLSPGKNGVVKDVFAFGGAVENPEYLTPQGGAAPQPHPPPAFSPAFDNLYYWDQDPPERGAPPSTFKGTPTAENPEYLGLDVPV
Chain of Ba/F3-FL-EGFR-H773-V774 ins NPH (P00533 with tags, fused parts or gaps DUP771-773): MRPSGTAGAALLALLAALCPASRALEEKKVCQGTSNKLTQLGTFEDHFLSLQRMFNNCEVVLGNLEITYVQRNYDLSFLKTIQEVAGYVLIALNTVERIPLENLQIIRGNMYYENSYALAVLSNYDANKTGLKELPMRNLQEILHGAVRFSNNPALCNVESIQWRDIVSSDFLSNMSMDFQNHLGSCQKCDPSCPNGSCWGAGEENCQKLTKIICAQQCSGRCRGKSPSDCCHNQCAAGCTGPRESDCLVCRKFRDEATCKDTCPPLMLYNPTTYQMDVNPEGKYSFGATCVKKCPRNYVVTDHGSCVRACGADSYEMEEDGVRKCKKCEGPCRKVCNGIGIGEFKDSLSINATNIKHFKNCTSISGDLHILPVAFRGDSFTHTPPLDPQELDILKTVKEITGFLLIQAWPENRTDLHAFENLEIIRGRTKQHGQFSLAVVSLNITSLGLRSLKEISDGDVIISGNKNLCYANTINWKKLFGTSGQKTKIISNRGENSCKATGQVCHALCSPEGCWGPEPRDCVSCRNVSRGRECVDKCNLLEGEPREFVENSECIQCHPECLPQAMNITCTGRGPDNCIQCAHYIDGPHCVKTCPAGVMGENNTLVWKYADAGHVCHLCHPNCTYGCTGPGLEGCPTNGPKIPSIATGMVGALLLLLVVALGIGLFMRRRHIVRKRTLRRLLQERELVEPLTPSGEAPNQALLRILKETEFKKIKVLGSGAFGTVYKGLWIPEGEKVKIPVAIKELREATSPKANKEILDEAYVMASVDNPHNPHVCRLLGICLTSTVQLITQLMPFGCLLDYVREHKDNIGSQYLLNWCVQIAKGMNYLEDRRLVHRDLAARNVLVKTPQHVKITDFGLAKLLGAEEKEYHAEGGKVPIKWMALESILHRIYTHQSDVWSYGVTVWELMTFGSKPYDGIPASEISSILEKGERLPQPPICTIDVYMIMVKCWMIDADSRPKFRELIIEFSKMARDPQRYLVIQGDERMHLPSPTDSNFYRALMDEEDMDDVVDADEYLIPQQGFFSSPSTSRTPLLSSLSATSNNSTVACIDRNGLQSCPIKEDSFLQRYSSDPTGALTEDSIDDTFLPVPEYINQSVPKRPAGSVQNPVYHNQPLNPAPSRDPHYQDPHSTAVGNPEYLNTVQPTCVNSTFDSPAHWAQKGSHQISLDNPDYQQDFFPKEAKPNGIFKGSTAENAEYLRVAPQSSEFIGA
Chain of Ba/F3-FL-EGFR-D770-N771 ins SVD (P00533 with tags, fused parts or gaps DUP768-770): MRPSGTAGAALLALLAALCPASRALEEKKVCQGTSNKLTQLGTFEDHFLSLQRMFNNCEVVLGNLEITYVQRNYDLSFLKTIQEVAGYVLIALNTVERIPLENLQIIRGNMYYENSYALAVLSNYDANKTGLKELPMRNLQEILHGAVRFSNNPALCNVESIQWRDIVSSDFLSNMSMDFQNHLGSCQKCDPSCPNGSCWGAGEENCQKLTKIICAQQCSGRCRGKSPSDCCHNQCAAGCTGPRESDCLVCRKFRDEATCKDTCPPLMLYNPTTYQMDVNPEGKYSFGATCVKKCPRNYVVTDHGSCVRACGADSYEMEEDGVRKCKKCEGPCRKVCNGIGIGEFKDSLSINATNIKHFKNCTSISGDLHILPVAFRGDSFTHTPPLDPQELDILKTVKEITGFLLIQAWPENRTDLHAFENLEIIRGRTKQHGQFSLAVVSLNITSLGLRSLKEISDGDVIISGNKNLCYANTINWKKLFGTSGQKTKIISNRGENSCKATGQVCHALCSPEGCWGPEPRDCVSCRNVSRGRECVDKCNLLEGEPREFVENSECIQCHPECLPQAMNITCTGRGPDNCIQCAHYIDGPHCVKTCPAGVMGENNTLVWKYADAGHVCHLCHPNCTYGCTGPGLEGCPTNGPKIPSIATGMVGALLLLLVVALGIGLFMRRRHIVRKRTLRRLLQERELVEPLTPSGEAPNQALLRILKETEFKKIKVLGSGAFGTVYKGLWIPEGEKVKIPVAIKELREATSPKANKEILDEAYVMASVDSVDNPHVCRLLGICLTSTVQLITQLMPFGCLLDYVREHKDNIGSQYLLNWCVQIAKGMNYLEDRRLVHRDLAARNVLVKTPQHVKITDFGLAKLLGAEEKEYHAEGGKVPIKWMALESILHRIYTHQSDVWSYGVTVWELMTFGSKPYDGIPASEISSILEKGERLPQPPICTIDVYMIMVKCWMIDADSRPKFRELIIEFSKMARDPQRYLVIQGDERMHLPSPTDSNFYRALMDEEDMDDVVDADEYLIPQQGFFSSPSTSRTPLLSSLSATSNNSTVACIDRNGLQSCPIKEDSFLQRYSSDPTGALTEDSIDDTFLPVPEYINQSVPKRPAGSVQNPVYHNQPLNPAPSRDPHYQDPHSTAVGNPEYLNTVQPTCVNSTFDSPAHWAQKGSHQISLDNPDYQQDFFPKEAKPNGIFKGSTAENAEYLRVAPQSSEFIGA

On to `C=CC(=O)Nc1cc(Nc2ncc(-c3nnc(C)o3)c(-c3cn(C)c4ccccc34)n2)c(OC)cc1N(C)[C@H]1[C@@H]2CN(C)C[C@@H]21` [Example 18, reference compound], for which, in test [1], the “TGI (%)” value worked out at 32.22%.

Consider `C=CC(=O)Nc1cc(Nc2ncc(-c3nnc(C)o3)c(-c3cn(C)c4ccccc34)n2)c(OC)cc1N(C)[C@@H]1[C@@H]2CN(C)C[C@@H]21` [Example 5], for which the IC50 in the test on PC9 and in the test on NCI-H1975 was not above 30 nM each time. For the same compound, the GI50 in test [2], in test [3], in test [4], in [5] and in test [7] was not above 30 nM throughout. The “TGI (%)” value is listed as 66.90% in [6] (30 mg/kg) and 59.51% in test [1]. Moreover, the “cellular activity against HER2 exon 20 insertion mutations compared with controls” value in test [7] (Table 7) is “comparable to that of TAK-788 and superior to that of DZD9008”.

Turning to `C=CC(=O)Nc1cc(Nc2ncc(C(=O)OC(C)C)c(-c3cn(C)c4ccccc34)n2)c(OC)cc1N(C)[C@H]1[C@@H]2CN(C)C[C@@H]21` [Example 40, reference compound], the “TGI (%)” value in [1] worked out at 37.84%.

Consider `[2H]C([2H])([2H])N(c1cc(OC)c(Nc2ncc(-c3nnc(C)o3)c(-c3cn(C)c4ccccc34)n2)cc1NC(=O)C=C)[C@@H]1[C@@H]2CN(C)C[C@@H]21` [Example 7], for which the GI50 in [2], in test [3], in test [4] and in test [5] was not above 30 nM in each case.

For `[2H]C([2H])([2H])n1cc(-c2nc(Nc3cc(NC(=O)C=C)c(N(C)[C@@H]4[C@@H]5CN(C)C[C@@H]54)cc3OC)ncc2C(=O)OC(C)C)c2ccccc21` [Example 2], the GI50 in test [2], in test [3], in test [4] and in [5] was not above 30 nM throughout.

In the case of `[2H]C([2H])([2H])N1C[C@@H]2[C@H](C1)[C@@H]2N(C)c1cc(OC)c(Nc2ncc(-c3nnc(C)o3)c(-c3cn(C)c4ccccc34)n2)cc1NC(=O)C=C` [Example 8], the GI50 in test [2], in test [3], in [4] and in test [5] was not above 30 nM in each case.

As to `C=CC(=O)Nc1cc(Nc2ncc(C(=O)OC(C)C)c(-c3cn(C)c4ccccc34)n2)c(OC)cc1N(C)[C@@H]1[C@@H]2CN(C)C[C@@H]21` [Example 1], the IC50 in the test with PC9 and in the test with NCI-H1975 was not above 30 nM throughout. The GI50 in test [2], in test [3], in test [4], in test [5] and in test [7] was not above 30 nM throughout. The “TGI (%)” value is listed as 79.01% in [6] (30 mg/kg), 97.44% in test [6] (50 mg/kg) and 61.08% in test [1]. In addition, the “efficacy compared with controls (FIG. 1, tumor volume)” value in [6] (same dose) is “superior to that of TAK-788 and DZD9008”.

For `[2H]C([2H])([2H])N(c1cc(OC)c(Nc2ncc(C(=O)OC(C)C)c(-c3cn(C)c4ccccc34)n2)cc1NC(=O)C=C)[C@@H]1[C@@H]2CN(C)C[C@@H]21` [Example 3], the GI50 in [2], in test [3], in test [4] and in [5] was not above 30 nM throughout.

By IC50 is commonly meant the midpoint of a concentration-inhibition curve. The low end stands for greater potency, the high end for weaker potency.
